Data taken from patent US8618167B2, “Methods of attenuating cognitive deficits with sulfonyl fluorides” (priority 2001, dated 2013).

Key:
[1] = tested on: ischemia-induced loss of hippocampal pyramidal cells and acetylcholine; conditions: pretreatment; cited from earlier work
acetylcholinesterase = biological target: T1, acetylcholinesterase (Rattus norvegicus, UniProt P37136); experiment: Control acetylcholinesterase assays of brain after MSF treatment (Ellman spectrophotometric method); type: in vivo; conditions: same regimen; dissected brain part
T1 construct: from tissue; host or cells: rat brain (whole brain, hippocampus, cortex, striatum/nucleus accumbens)
T1 sequence (P37136 32-614): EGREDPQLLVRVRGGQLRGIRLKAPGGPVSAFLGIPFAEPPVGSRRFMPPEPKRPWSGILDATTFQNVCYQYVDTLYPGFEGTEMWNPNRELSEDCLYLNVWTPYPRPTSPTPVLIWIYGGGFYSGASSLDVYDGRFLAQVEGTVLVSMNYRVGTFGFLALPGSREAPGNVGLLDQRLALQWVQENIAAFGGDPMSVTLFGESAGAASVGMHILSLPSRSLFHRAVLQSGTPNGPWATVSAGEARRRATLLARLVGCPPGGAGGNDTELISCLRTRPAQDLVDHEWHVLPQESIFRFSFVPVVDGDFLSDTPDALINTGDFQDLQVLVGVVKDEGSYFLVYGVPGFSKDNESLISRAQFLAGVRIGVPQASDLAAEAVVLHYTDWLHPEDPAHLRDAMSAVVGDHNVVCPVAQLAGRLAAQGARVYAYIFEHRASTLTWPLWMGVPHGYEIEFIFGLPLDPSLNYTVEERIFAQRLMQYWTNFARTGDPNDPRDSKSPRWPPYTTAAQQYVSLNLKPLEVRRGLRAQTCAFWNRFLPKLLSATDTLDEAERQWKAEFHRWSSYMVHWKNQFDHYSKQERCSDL
Protocol: Control Acetylcholinesterase Assays. Two additional groups of normal control (non-ischemic) rats were treated with MSF (N=4) or peanut oil vehicle (N=4) in accordance with the exact procedures used with the other groups in order to estimate the level of acetylcholinesterase inhibition produced. At the end of the study, the rats were sacrificed and acetylcholinesterase assays were conducted at 25° C. according to the spectrophotometric method (Ellman et al., 1961) with minor modifications (pH set at 7.4 and using 1 mM acetyl-β-methyl-thiocholine iodide as substrate).
Drugs. For study 1, animals received ip injections of either MSF (1 mg/kg at 24 and 48 hrs post-MCAo and 0.3 mg/kg thereafter every other day) or the vehicle, peanut oil, for four weeks. Each animal received 0.5 ml of the solution. For study 2, animals received 1 mg/kg at 24 and 48 hrs post-MCAo and 0, 0.15, 0.30 or 0.6 mg/kg of MSF in peanut oil using the same regimen mentioned above. For study 3, animals were introduced to the same regimen as in study 1, but thereafter received peanut oil every other day from four weeks up to eight weeks post-MCAo.

[2] = tested on: brain acetylcholinesterase; conditions: cited from earlier work
[3] = tested on: ischemic (MCAo) Sprague-Dawley rats; experiment: Elevated body swing test (EBST), motor asymmetry after MCAo; type: in vivo, rat; conditions: 4 wks after MCAo, MSF 1 mg/kg at 24 and 48 hrs then 0.3 mg/kg every other day i.p., mean±S.E.M., vehicle 84.8±10, p>0.05
[4] = tested on: septal ChAT immunoreactivity; experiment: Choline acetyltransferase (ChAT) immunohistochemistry of the septum; type: in vivo, rat
Protocol: Choline Acetyltransferase (ChAT) Immunohistochemistry. Following the behavioral test at 4 wks post-ischemia, randomly selected animals (n=4 per group) were deeply anesthetized and perfused intracardially with 150 ml saline followed by 150 ml of 4% paraformaldehyde. The brains were post-fixed overnight in 4% paraformaldehyde and subsequently immersed in 20% sucrose in 4% paraformaldehyde and stored at 8° C. until sectioning. A vibratome (Vibroslice, Fla.) was used to cut the brain (40 μm sections). Ten serial brain sections that included the septal region (+1.4 to +0.2 mm from the bregma) were processed for ChAT immunohistochemistry. Sections were pre-incubated in 5% blocking serum (normal goat, Jackson ImmunoResearch Laboratories, PA) in 0.1% Triton-X in 0.1 M NaPBS for 60 min, followed by incubation in the primary ChAT antibody (Boehringer Mannheim Biochemical, IN; 1:10 dilution in 0.1 M phosphate-buffered saline, NaPBS) at room temperature overnight. The sections were reacted with the appropriate biotinylated secondary antibody (1:2000) for 45 min, followed by an avidin-biotin-peroxidase complex system (ABC Elite Vectastain Kit, Vector, Burlingame, Calif.) for 45 min. Finally, the Vector VIP Kit (Vector, Burlingame, Calif.) was used to visualize the reaction product. The sections were mounted on gelatin-coated glass slides, dried overnight, dehydrated in increasing alcohol concentrations, and cover-slipped using Permount (Fisher Scientific, Pittsburgh, Pa.) mounting solution. Serial sections were digitized using a PC-based Image Tools computer program. To determine the ChAT alterations in the septum, comparisons of mean total number (average counts from ten brain sections per animal) of septal ChAT-immunoreactive (ir) neurons from MSF- and vehicle-treated ischemic animals were conducted. Individual counts of ChAT-ir neurons were made using the following criteria: heavily stained nuclei (HN), pale stained nuclei (PN) and presence of elaborate processes (P). […] In addition, a 5-point semi-quantitative scale was used to assess the intensity of ChAT immunoreactivity. […]

[5] = tested on: ischemic (MCAo) Sprague-Dawley rats; experiment: Step-down passive avoidance test after MCAo; type: in vivo, rat
Source text: Experimental Protocol. A total of 48 eight-week-old, male, Sprague-Dawley rats weighing about 250 g served as subjects in the present study. All animals were free of virus antibody. A 3-day acclimation period was allowed prior to using the animals. Animals were kept under a 12-12 hr light/dark cycle and allowed free access to food and water before and after surgical procedures. All experimental procedures followed UTEP IACUC guidelines for use of animals in research to minimize discomfort in the animals during surgery and in the recovery period. […] In study one (n=24), the 0.3 mg/kg dose of MSF, which was previously reported as efficacious in ameliorating cognitive deficits in animals, was used to initially provide the putative drug's effects on ischemic animals. Studies two (dose response effects of MSF; n=16) and three (withdrawal of MSF; n=8) were conducted to further characterize the direct neurobehavioral effects of MSF. […]
The passive avoidance test followed the procedures described in detail elsewhere (Borlongan et al., 1998a; 1998b). […] Acquisition of the task was measured in terms of the amount of time it took the rat to remain on the platform continuously for 3 min. Twenty four hrs later, a retention test was conducted by placing the rat on the platform exactly as before and recording the latency to step-down measured to a maximum of 3 min. […]

[6] = tested on: middle-aged and older rats; conditions: chronic MSF treatment; cited from earlier work
[7] = tested on: ischemic (MCAo) Sprague-Dawley rats; conditions: rat, in vivo
SDAT patients = conditions: cited from earlier work
brain AChE = biological target: T2, brain AChE (Rattus norvegicus, UniProt P37136); conditions: cited from earlier work
T2 sequence (P37136 32-614): T1 sequence (P37136 32-614)

[8] = biological target: acetylcholinesterase in comparison to butyrylcholinesterase (Homo sapiens, UniProt P22303); conditions: cited from earlier work
[9] = chronic MSF 0.22 mg/kg three times per week
[10] = single systemic injection of 1.5 mg/kg MSF

acetylcholinesterase in comparison to butyrylcholinesterase, sequence (P22303 32-614): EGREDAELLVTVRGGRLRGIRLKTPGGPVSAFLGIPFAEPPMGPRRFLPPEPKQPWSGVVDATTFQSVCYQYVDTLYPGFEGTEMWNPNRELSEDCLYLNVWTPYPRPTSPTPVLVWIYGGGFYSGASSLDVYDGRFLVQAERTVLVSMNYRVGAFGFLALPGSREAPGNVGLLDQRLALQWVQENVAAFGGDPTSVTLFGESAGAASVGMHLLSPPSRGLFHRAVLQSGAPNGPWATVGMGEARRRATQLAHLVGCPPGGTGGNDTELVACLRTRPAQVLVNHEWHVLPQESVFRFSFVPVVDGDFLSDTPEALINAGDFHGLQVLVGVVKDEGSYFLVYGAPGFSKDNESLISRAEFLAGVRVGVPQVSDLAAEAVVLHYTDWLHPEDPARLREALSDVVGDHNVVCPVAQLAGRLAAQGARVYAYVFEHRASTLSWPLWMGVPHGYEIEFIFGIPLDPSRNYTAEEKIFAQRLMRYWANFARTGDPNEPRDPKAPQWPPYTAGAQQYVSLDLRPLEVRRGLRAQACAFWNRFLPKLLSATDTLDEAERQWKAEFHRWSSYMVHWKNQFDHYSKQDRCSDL

For `CCN(C)C(=O)Oc1cccc([C@H](C)N(C)C)c1` [ENA-173], the “levels of hippocampal acetylcholine and ischemia-induced loss of hippocampal pyramidal cells” value [1] is given as “preserve the levels of hippocampal acetylcholine and to protect against ischemia-induced loss of pyramidal cells”.
In the case of `CS(=O)(=O)F` [MSF, Methanesulfonyl fluoride], the “acetylcholinesterase inhibition in cortex” value (acetylcholinesterase) is reported as 85.9%, the “acetylcholinesterase inhibition in hippocampus” value (acetylcholinesterase) is reported as 88.5% and the “acetylcholinesterase inhibition in striatum/nucleus accumbens” value (acetylcholinesterase) is reported as 95.0%. The “toxicity at accumulated brain acetylcholinesterase inhibition” value ([2]; at up to 80-90% brain inhibition) was “without toxicity”, the “inhibition of brain acetylcholinesterase that can be accumulated” value ([2]; relatively small doses over a long period of time, minimum inhibition of peripheral enzyme) was 80-90% and the “biased swing activity (EBST)” value [3] was 87.7±8%. For the same compound, the “intensity of staining of ChAT-ir neurons in lateral and medial septum” value ([4]; compared to vehicle-treated ischemic animals) was “more intense staining of ChAT-ir neurons”, the “increment in mean total number of HN+P ChAT-ir cells vs vehicle-treated ischemic animals” value ([4]; septum, 4 wks post-ischemia, heavily stained nuclei with processes, p<0.05) was 10%-15% and the “increment in mean total number of HN ChAT-ir cells vs vehicle-treated ischemic animals” value ([4]; septum, 4 wks post-ischemia, heavily stained nuclei, p<0.05) was 10%-15%. The “passive avoidance: time to acquire the task” value ([5]; 4 wks after MCAo, same regimen, mean±S.E.M., vehicle 398±62, p<0.05) was 255 ± 36 s, the “passive avoidance: retention of the task (step down latency)” value ([5]; retention test 24 hrs after acquisition, max 3 min, vehicle 79±26, p<0.05) was 145 ± 18 s and the “acquisition of one-trial per day discriminative reward learning task” value [6] was “enhance the acquisition”. The “ischemia-induced apoptotic cell death” value [7] was “did not block ischemia-induced apoptotic cell death”, the “mean volume of infarcted tissue” value [7] was 78.1±14.2 mm^3 and the “persistence of cognition-enhancing effects after withdrawal” value (SDAT patients; SDAT patients) was “persisted up to eight weeks after withdrawal of the drug”. The “cognitive performance of SDAT patients” value (SDAT patients; double-blind, placebo-controlled study) was “significant clinical improvements”, the “decrement in brain AChE activity” value (brain AChE; [9]) was “about 50%” and the liver damage (brain AChE; [9]) was “no liver damage”. For the same compound, the locomotor side effects (brain AChE; [9]) was “without discernable locomotor side effects”, the behavioral alterations (brain AChE; [10]) was “no observable behavioral alterations” and the “reduction of brain AChE activity” value (brain AChE; [10]) was 70%. The “selectivity as inhibitor of acetylcholinesterase in comparison to butyrylcholinesterase” value [8] was “high selectivity”.
For `COP(=O)(OC)C(O)C(Cl)(Cl)Cl` (stereo not drawn) [metrifonate, reference compound], the “selectivity as inhibitor of acetylcholinesterase in comparison to butyrylcholinesterase” value [8] is listed as “do not show this high degree of selectivity”.
